The values below come from PubChem BioAssay AID1259407 (Chemical Carcinogenesis Research Information System (CCRIS), 2018).

Molecules are shown by their SMILES. Active and inactive are the calls of the source. How the calls were made is not given here.

For the data set, the system named is CCRIS mutagenicity, Ames/micronucleus/aberration tests. The data set can be described thus: CCRIS mutagenicity studies.
The mark [1] stands for this setting: Test System: AMES SALMONELLA TYPHIMURIUM, Strain/Indicator: TA98, Metabolic Activation: NONE, Method: PREINCUBATION
[2] abbreviates: Test System: AMES SALMONELLA TYPHIMURIUM, Strain/Indicator: TA98, Metabolic Activation: RAT, LIVER, S-9, PCB, Method: PREINCUBATION
Where [3] appears, read: Test System: AMES SALMONELLA TYPHIMURIUM, Strain/Indicator: TA100, Metabolic Activation: NONE, Method: PREINCUBATION
The mark [4] stands for this setting: Test System: AMES SALMONELLA TYPHIMURIUM, Strain/Indicator: TA100, Metabolic Activation: RAT, LIVER, S-9, PCB, Method: PREINCUBATION

In the case of `Nc1ncn([C@@H]2O[C@H](CO)[C@@H](O)[C@@H]2O)c(=O)n1`, the mutagenic call is “inactive; negative” (Test System: AMES SALMONELLA TYPHIMURIUM, Strain/Indicator: TA98, Metabolic Activation: HAMSTER, LIVER, S-9, AROCLOR 1254, Method: STANDARD PLATE); “inactive; negative” (Test System: AMES SALMONELLA TYPHIMURIUM, Strain/Indicator: TA98, Metabolic Activation: NONE, Method: STANDARD PLATE); “inactive; negative” (Test System: AMES SALMONELLA TYPHIMURIUM, Strain/Indicator: TA98, Metabolic Activation: RAT, LIVER, S-9, AROCLOR 1254, Method: STANDARD PLATE); “inactive; negative” (Test System: AMES SALMONELLA TYPHIMURIUM, Strain/Indicator: TA100, Metabolic Activation: HAMSTER, LIVER, S-9, AROCLOR 1254, Method: STANDARD PLATE); “inactive; negative” (Test System: AMES SALMONELLA TYPHIMURIUM, Strain/Indicator: TA100, Metabolic Activation: NONE, Method: STANDARD PLATE); “inactive; negative” (Test System: AMES SALMONELLA TYPHIMURIUM, Strain/Indicator: TA100, Metabolic Activation: RAT, LIVER, S-9, AROCLOR 1254, Method: STANDARD PLATE). Further, the mutagenic call was “inactive; negative” (Test System: AMES SALMONELLA TYPHIMURIUM, Strain/Indicator: TA1535, Metabolic Activation: HAMSTER, LIVER, S-9, AROCLOR 1254, Method: STANDARD PLATE); “inactive; negative” (Test System: AMES SALMONELLA TYPHIMURIUM, Strain/Indicator: TA1535, Metabolic Activation: NONE, Method: STANDARD PLATE); “inactive; negative” (Test System: AMES SALMONELLA TYPHIMURIUM, Strain/Indicator: TA1535, Metabolic Activation: RAT, LIVER, S-9, AROCLOR 1254, Method: STANDARD PLATE); “inactive; negative” (Test System: AMES SALMONELLA TYPHIMURIUM, Strain/Indicator: TA1537, Metabolic Activation: HAMSTER, LIVER, S-9, AROCLOR 1254, Method: STANDARD PLATE); “inactive; negative” (Test System: AMES SALMONELLA TYPHIMURIUM, Strain/Indicator: TA1537, Metabolic Activation: NONE, Method: STANDARD PLATE); “inactive; negative” (Test System: AMES SALMONELLA TYPHIMURIUM, Strain/Indicator: TA1537, Metabolic Activation: RAT, LIVER, S-9, AROCLOR 1254, Method: STANDARD PLATE). Further, the mutagenic call reads like this: (Test System: AMES SALMONELLA TYPHIMURIUM, Strain/Indicator: TA1538, Metabolic Activation: HAMSTER, LIVER, S-9, AROCLOR 1254, Method: STANDARD PLATE) “inactive; negative”; (Test System: AMES SALMONELLA TYPHIMURIUM, Strain/Indicator: TA1538, Metabolic Activation: NONE, Method: STANDARD PLATE) “inactive; negative”; (Test System: AMES SALMONELLA TYPHIMURIUM, Strain/Indicator: TA1538, Metabolic Activation: RAT, LIVER, S-9, AROCLOR 1254, Method: STANDARD PLATE) “inactive; negative”; (Test System: MOUSE LYMPHOMA, Strain/Indicator: L5178Y (TK+/TK-), Metabolic Activation: NONE, Method: SUSPENSION/PLATE) “active; positive. reevaluation of results: inconclusive”; (Test System: MOUSE LYMPHOMA, Strain/Indicator: L5178Y (TK+/TK-), Metabolic Activation: RAT, LIVER, S-9, AROCLOR 1254, Method: SUSPENSION/PLATE) “inactive; negative. reevaluation of results: inconclusive”.

For the compound `COc1c(C=O)c(O)cc2c1C(=O)c1ccccc1C2=O`, the mutagenic call by setting is: under setting [1], “inactive; negative”; under setting [2], “inactive; negative”; under setting [3], “inactive; negative”; under setting [4], “inactive; negative”.

Turning to `Nc1ncnc2c1nc(-c1ccc([N+](=O)[O-])cc1)n2-c1ccc([N+](=O)[O-])cc1`, the mutagenic call (Test System: AMES SALMONELLA TYPHIMURIUM, Strain/Indicator: TA98(1,8-DNP), Metabolic Activation: NONE, Method: PREINCUBATION) was “active; positive”; the mutagenic call (Test System: AMES SALMONELLA TYPHIMURIUM, Strain/Indicator: TA98(1,8-DNP), Metabolic Activation: RAT, LIVER, S-9, PCB, Method: PREINCUBATION) is “active; positive”; the mutagenic call (Test System: AMES SALMONELLA TYPHIMURIUM, Strain/Indicator: TA98(NR), Metabolic Activation: NONE, Method: PREINCUBATION) was “active; positive”; the mutagenic call (Test System: AMES SALMONELLA TYPHIMURIUM, Strain/Indicator: TA98(NR), Metabolic Activation: RAT, LIVER, S-9, PCB, Method: PREINCUBATION) was “active; positive”; the mutagenic call under setting [1] is “active; positive”; the mutagenic call under setting [2] is “active; positive”. Further, the mutagenic call by setting is: (Test System: AMES SALMONELLA TYPHIMURIUM, Strain/Indicator: TA100(1,8-DNP), Metabolic Activation: NONE, Method: PREINCUBATION) “inactive; negative”; (Test System: AMES SALMONELLA TYPHIMURIUM, Strain/Indicator: TA100(1,8-DNP), Metabolic Activation: RAT, LIVER, S-9, PCB, Method: PREINCUBATION) “inactive; negative”; (Test System: AMES SALMONELLA TYPHIMURIUM, Strain/Indicator: TA100(NR), Metabolic Activation: NONE, Method: PREINCUBATION) “inactive; negative”; (Test System: AMES SALMONELLA TYPHIMURIUM, Strain/Indicator: TA100(NR), Metabolic Activation: RAT, LIVER, S-9, PCB, Method: PREINCUBATION) “inactive; negative”; under setting [3], “active; positive”; under setting [4], “active; positive”. The mutagenic call was “active; positive” (Test System: AMES SALMONELLA TYPHIMURIUM, Strain/Indicator: YG1020, Metabolic Activation: NONE, Method: PREINCUBATION); “active; positive” (Test System: AMES SALMONELLA TYPHIMURIUM, Strain/Indicator: YG1020, Metabolic Activation: RAT, LIVER, S-9, PCB, Method: PREINCUBATION); “active; positive” (Test System: AMES SALMONELLA TYPHIMURIUM, Strain/Indicator: YG1021, Metabolic Activation: NONE, Method: PREINCUBATION); “active; positive” (Test System: AMES SALMONELLA TYPHIMURIUM, Strain/Indicator: YG1021, Metabolic Activation: RAT, LIVER, S-9, PCB, Method: PREINCUBATION); “active; positive” (Test System: AMES SALMONELLA TYPHIMURIUM, Strain/Indicator: YG1024, Metabolic Activation: NONE, Method: PREINCUBATION); “active; positive” (Test System: AMES SALMONELLA TYPHIMURIUM, Strain/Indicator: YG1024, Metabolic Activation: RAT, LIVER, S-9, PCB, Method: PREINCUBATION). Moreover, the mutagenic call is “active; positive” (Test System: AMES SALMONELLA TYPHIMURIUM, Strain/Indicator: YG1025, Metabolic Activation: NONE, Method: PREINCUBATION); “active; positive” (Test System: AMES SALMONELLA TYPHIMURIUM, Strain/Indicator: YG1025, Metabolic Activation: RAT, LIVER, S-9, PCB, Method: PREINCUBATION); “active; positive” (Test System: AMES SALMONELLA TYPHIMURIUM, Strain/Indicator: YG1026, Metabolic Activation: NONE, Method: PREINCUBATION); “active; positive” (Test System: AMES SALMONELLA TYPHIMURIUM, Strain/Indicator: YG1026, Metabolic Activation: RAT, LIVER, S-9, PCB, Method: PREINCUBATION); “active; positive” (Test System: AMES SALMONELLA TYPHIMURIUM, Strain/Indicator: YG1029, Metabolic Activation: NONE, Method: PREINCUBATION); “active; positive” (Test System: AMES SALMONELLA TYPHIMURIUM, Strain/Indicator: YG1029, Metabolic Activation: RAT, LIVER, S-9, PCB, Method: PREINCUBATION).

With `CCn1nc(C(=O)O)c(=O)c2cc3c(cc21)OCO3`, the mutagenic call (Test System: AMES SALMONELLA TYPHIMURIUM, Strain/Indicator: TA102, Metabolic Activation: NONE, Method: STANDARD PLATE) was “active; positive”.
